Here are results for five compounds from patent US9682158B2, “Therapy of malignant neoplasias” (priority 2005, dated 2017).

For series [1], the system named is glioma, pancreas, prostate and breast cancer cells. As to the kind of experiment: Cell survival after treatment with radiolabeled L-phenylalanines, further tumor cells. The class given is cell-based. The settings on record: in vitro. On the procedure: (§1) After development of a confluent lawn of cells, the cultures were exposed to 0.001-10 μCi/ml of the corresponding radiopharmaceutical for up to 48 hours at 37° C./5% CO2. In a parallel experiment, cells were irradiated using a 6-MeV linear accelerator with doses from 2 to 15 Gy for comparison of cell survival rate of both methods. In order to be able to observe the morphology of the glioma cells, the cells were grown on standard glass slides or in standard culture dishes. Then the medium was removed and the cells were fixed either in 70% ethanol for at least 30 min on ice for flow-cytometric analyses after staining or in 4% neutral buffered formalin for immunohistopathological analyse.
(§2) Human tumor cells grown on standard glass slides were fixed in 4% neutral buffered formalin and stained with the Giemsa method. The cell number was calculated in 10 consecutive high power fields (×40).

For series [2], the system named is human tumor cells, especially malignant gliomas. As to the kind of experiment: Flow-cytometric analyses of stained cells after treatment (primary necrosis and apoptosis). The class given is cell-based. The settings on record: flow cytometry; compared with external irradiation up to 15 Gy. On the procedure: as §1
A general note: A flow cytometer gives signals particle by particle.

In series [3] the test system is glioma. The series is described as follows: Clinical studies with IPA-123 (SPECT imaging). Type of series: in vivo, human. The conditions noted are these: 250 MBq. On the procedure:
IPA was prepared, as described in example 2. […] Patients were injected with 250 MBq IPA-123, and subsequently imaged at 30 min, 3 h and, where possible, 24 h post injection, using a triple head SPECT camera (Siemens Multi-SPECT III, Erlangen, Germany) with low energy high resolution (LEHR) collimator and iterative reconstruction for cerebral (FIG. 14) imaging. Whole body imaging (FIG. 15) was performed using a Hawkeye dual head SPECT camera (General Electrics Medical Systems, Uppsala, Sweden) with high energy collimator, and iterative reconstruction at 0 min, 1 h and 3 h after injection of 250 MBq IPA-123. SPECT images were acquired using 3-degree angular steps. During a 360° rotation 120 projections were recorded into a 128*128 matrix, with an acquisition time of 40 s per image. Images were reconstructed using manufacturer's software. Anatomical co-alignment with MRI data was performed using HERMES software for nuclear medicine (Nuclear Diagnostics, Stockholm, Sweden). Tumor uptake was visually assessed by two adequately trained, independent nuclear medicine physicians. In discordant cases, a consensus rating was agreed upon. 86% of patients with histologically confirmed tumor show IPA-123 uptake.

Series [4] deals with glioma. The conditions noted are these: cited from earlier work.
Series [5] has as its system glioma. As to the kind of experiment: Clinical study with IPA-124 (PET imaging). The class given is in vivo, human. On the procedure: IPA was prepared, as described in example 3. […] The patient was injected with 50 MBq IPA-124, and subsequently dynamically imaged at 40-80 min and at 6 days post injection using a dedicated PET camera (Siemens ECAT-ART Scanner, Siemens-CTI, Knoxville, Tenn., USA). SPECT images were acquired using 3-degree angular steps. During a 360° rotation 120 projections were recorded into a 128*128 matrix, with an acquisition time of 40 s per image. Images were reconstructed using manufacturer's software. Anatomical co-alignment with MRI data was performed using HERMES software for nuclear medicine (Nuclear Diagnostics, Stockholm, Sweden) (FIGS. 12a and b). Tumor uptake was visually assessed by two adequately trained, independent nuclear medicine physicians. The patient was operated on day 2 post injection. Post-operative images continue to show strong IPA uptake in projection to the resection margins corresponding to a large portion of tumor tissue which remained in situ. […] Post-operative images were semiquantitatively analysed. A region of interest (ROI) was drawn over the area of increased IPA-124 uptake and compared to a mirrored reference ROI in the contralateral healthy hemisphere using the median sagittal plane as mirror plane (FIG. 12c). Activity concentration in the remaining tumor tissue exceeded activity in the reference region by a factor of 8.86 after 6 days.

For series [6] the following is noted: physical half life of the radionuclide; cited from earlier work.
The test system of series [7] is T5135 primary human glioma cell line. As to the kind of experiment: Cell survival rate after treatment with radiolabeled L-phenylalanines. Type of series: cell-based. The settings on record: 24 hours exposure, 1 μCi/ml, compared to parallel grown cell cultures without exposure. On the procedure:
(§3) Five human glioma cell lines, one rat glioma cell line, two human prostate cancer cell lines and one human breast cancer cell line were investigated. The human glioma cell lines Tx 3868 and T 5135 (from primary human glioblastoma multiforme), and the rat C6 glioma cells were provided by the Institute of Human Genetics, University of the Saarland (Homburg, Germany). The human high-grade glioma cells, designated as A1207, M059K and U373MG, the human prostate cancer cell lines PC3 and […], and the human breast cancer cell line MCF-07 (American Type Culture Collection, Rockville, Md.), were purchased commercially or provided by the oncological research laboratory of the University Medical Center of Saarland (Homburg, Germany). Cells were cultivated in RPMI-1640 medium or in Dulbecco's modified Eagle medium (sodium pyruvate-free, supplemented with […] and pyridoxine), respectively, supplemented with 10% (v/v) heat-inactivated foetal calf serum (FCS), penicillin (50 U/ml), streptomycin (50 μg/ml), and 50 μl insulin (PromoCell, Heidelberg, Germany). All cells lines were maintained in appropriate flasks in a humidified incubator (5% CO2) at 37° C. Before the experiment, subconfluent cell cultures were trypsinized with a solution of 0.05% trypsin containing 0.02% EDTA but without Ca^2+ and Mg^2+, and resuspended in fresh medium to various cell concentrations after counting by vital staining on a hemocytometer, depending upon the study. Cells were free of mycoplasms. Viability of the cells was >95%.
(§4) After development of a confluent lawn of cells, the cultures were exposed to 0.001-10 μCi/ml of the corresponding radiopharmaceutical for up to 48 hours at 37° C./5% CO2. In a parallel experiment, cells were irradiated using a 6-MeV linear accelerator with doses from 2 to 15 Gy for comparison of cell survival rate of both methods. […]
as §2

Series [8] concerns Tx 3868 primary human glioma cell line. Described as above. The class given is cell-based. On the procedure: as §3, §4, §2
In series [9] the test system is orthotopically implanted rat and human gliomas. As to the kind of experiment: IPA-131 endoradiotherapy in rats with orthotopically implanted rat and human gliomas, Kaplan-Meier survival. The class given is in vivo. Here is the method: (§5) The first studies were carried out on in male Wistar rats for C6 rat glioma model and in RNU rats for human glioma models. Wistar rats and RNU rats were from Charles River (Sulzfeld, Germany). The C6 rat glioma model has been previously described in detail. Its biological behavior closely simulates that of human high-grade gliomas.
(§6) One million (10^6) C6 rat glioma cells or 10^6 primary human Tx3868, […], A1207, M059K and U373MG high-grade glioma cells were stereotactically implanted into the left frontal region of Wistar rats or RNU rats while under chloral hydrate anaesthesia as described previously. The animals were held in metabolic cages. […] For each cell line, 6 animals with radiologically (MRI or by gamma camera) confirmed brain tumor were randomly chosen as control animals, a second group of 15 animals were treated with 20 MBq of the radiolabeled L-phenylalanine in two fractions of 10 MBq each via a Teflon catheter in a tail vein 9 and 18 days after tumour implantation. While a third group of 15 rats were irradiated with 4-8 Gy. Survival time was calculated according to the Kaplan-Meier method. Surviving animals were sacrificed after 90 and 180 days. All rat brains were examined histologically after biopsy.

The test system of the next series is C6 rat gliomas. As to the kind of experiment: IPA-131 endoradiotherapy of orthotopic C6 rat gliomas. Type of series: in vivo. Here is the method: […] Wistar rats and RNU rats were from Charles River (Sulzfeld, Germany). The C6 rat glioma model has been previously described in detail. Its biological behavior closely simulates that of human high-grade gliomas.
as §6
Magnetic resonance imaging was performed 9 days after tumour implantation (before drug administration) and after the second injection of radiolabeled phenylalanine at day 18 as well as possibly at the day of scarification, using a 2.4-Tesla small animal magnetic resonance tomograph (Brucker Biospec 2.4, Karlruhe, Germany). This system was equipped with a rat coil to hold the animal and transmit homogeneous signals. All rats were imaged while under chloral hydrate anaesthesia (250 mg/kg, i.m.). Multiple axial and coronal images (T1- and T2-weighted) were acquired for 20 min without contrast media. The parameters used were: T1-weighted (TR=100 msec, TE=6.5 msec, flip angle 30°, FOV=2×2 cm, 256×128×64 matrix) and T2-weighted (TR=500 msec, TE=17.5 msec, 1 acquisition, RARE factor 16, FOV=2×2 cm, 256×256×32 matrix, slap-thickness 16 mm).
(§7) At autopsy of the rats and mice, besides the brains, other organs were harvested including the heart, lung, liver, spleen, kidney, skin, and colon. […]

For series [10], the system named is human Tx3868 glioblastomas. The series is described as follows: IPA-131 endoradiotherapy of orthotopic human Tx3868 glioblastomas. Type of series: in vivo. The settings on record: dose 20 MBq, RNU rats. On the procedure:
as §5, §6, §7

The test system of series [11] is human A1207 glioblastomas. As to the kind of experiment: IPA-131 endoradiotherapy of orthotopic human A1207 glioblastomas. Type of series: in vivo. The conditions noted are these: dose 20 MBq, RNU rats. On the procedure: as §5, §6, §7
Series [12] is described as follows: Clinical and histological safety observation of treated glioma rats. The class given is in vivo, rat. On the procedure: as §6
At autopsy of the rats and mice, besides the brains, other organs were harvested including the heart, lung, liver, spleen, kidney, skin, and colon. The brains were cut in coronal slices of about 2-3 mm thickness. All tissues from the animals were fixed in 4% neutral buffered formalin and embedded in paraffin wax. Sections were stained with hematoxylin-eosin and Verhoeff-van Gieson and examined histopathologically.

Series [13] has as its system glioma. The series is described as follows: Clinical study with IPA-131 (SPECT imaging). The settings on record: 100 MBq. Type of series: in vivo, human. On the procedure: IPA was prepared, as described in example 3. […] The patient was injected with 100 MBq IPA-131 and subsequently imaged at 30 min and at 26 h post injection using a Hawkeye dual head SPECT camera (General Electrics Medical Systems, Uppsala, Sweden) with high energy collimator, and iterative reconstruction for cerebral (FIGS. 13a and b) and whole body (FIGS. 13c and d) imaging. SPECT images were acquired using 3-degree angular steps. During a 360° rotation 120 projections were recorded into a 128*128 matrix, with an acquisition time of 40 s per image. Images were reconstructed using manufacturer's software. Tumor uptake was visually assessed by two adequately trained, independent nuclear medicine physicians.

“Also recorded” adds a separate entry of the source.

Consider “3,4-[^77Br]bromo-L-Phenylalanine [BrPA-77]”, for which the “cell count / cell survival compared with IPA-131 results” value in [1] is recorded as “Identical results”. Further, in series [2], the “induction of primary necrosis and apoptosis” value (shortened to “induction”) is “dose dependent induction of primary necrosis and apoptosis, which was more significant than that caused by external irradiation, even with 15 Gy”.
Take “3,4-[^211I]astatine-L-phenylalanine [AtPA-211]”: the “cell count / cell survival compared with IPA-131 results” value in series [1] was “Identical results”. For the same compound, in [2], the “induction” value is “dose dependent induction of primary necrosis and apoptosis, which was more significant than that caused by external irradiation, even with 15 Gy”.
Turning to `N[C@@H](Cc1ccc([123I])cc1)C(=O)O` [IPA-123, 4-[^123I]iodo-L-phenylalanine], in the series with glioma [3] (visual assessment), the “patients with histologically confirmed tumor showing uptake” value worked out at 86%. Further, the “retention of the tracer in tumor” value in the series on glioma [3] (patient with glioblastoma) is “at least 24 h”. Further, the accumulation in gliomas entry in the series with glioma [4] (after intravenous administration, ref [14]) is “accumulates specifically in low and high grade gliomas with surprisingly marked retention in tumor cells”. Also, the blood-brain barrier passage result in the series on glioma [4] (after intravenous administration, refs [13, 14]) is recorded as “crosses the blood-brain barrier”. In addition, in the series on glioma [4] (refs [13, 14]), the “accumulation in the normal cerebral parenchyma” value was “moderate and decreases rapidly with time”.
Take `N[C@@H](Cc1ccc([124I])cc1)C(=O)O` [IPA-124, 4-[^124I]iodo-L-phenylalanine]: the “tumor uptake / targeting in glioma patient” value with glioma [5] (50 MBq, PET 40-80 min and 6 days post injection) was “retained in high activity concentrations by tumor tissue for prolonged periods; also recorded: Successful tumor targeting”. The tolerability entry in the series with glioma [5] (patient, 50 MBq) is recorded as “well tolerated”. The “retention of tracer in glioma” value with glioma [5] (patient, 50 MBq, PET) was “at least 6 days”. Also, the “tumor activity relative to reference region (contralateral healthy tissue), factor” value in the series on glioma [5] (post-operatively remaining tumor tissue, 6 days post injection of 50 MBq) came out at 8.86. The half life in series [6] is 101 h.
Consider `N[C@@H](Cc1ccc([131I])cc1)C(=O)O` [IPA-131, 4-[^131I]iodo-L-phenylalanine], for which the cell survival rate in [7] is below 20%; in series [8] (24 hours exposure, 1 μCi/ml, compared to parallel grown cell cultures without exposure), “less than 22%”. For the same compound, in [8] (primary human glioma cell lines after 24 hours exposure), the “mode of cell death (cytological)” value is “apoptosis”. The “induction” value in series [2] was “dose dependent induction of primary necrosis and apoptosis, which was more significant than that caused by external irradiation, even with 15 Gy”. The “survival vs maximum tolerable external irradiation” value in series [9] (Kaplan-Meier analysis, 20 MBq vs external irradiation) was “significantly longer survival than those treated by maximum tolerable doses of external irradiation”. The “survival time of treated rats vs control group” value in [9] (all glioma models, 20 MBq i.v. in two fractions) is recorded as “significantly increased”. For the same compound, in the series on C6 rat gliomas (C6-glioma rats, 81 days after implantation, p=<0.05), the “Kaplan-Meier survival of treated animals group” value is listed as “significant longer survival”. In addition, the “tumor disappearance, intravital small animal MRI imaging” value with C6 rat gliomas (dose 20 MBq, RNU rats) is “subgaleal and intracerebral tumor disappearance”. Also, the “tumour on MRI” value with C6 rat gliomas (surviving C6-glioma rats, 81 days after implantation) was “no tumour was demonstrable with MRI”. For the same compound, the “metabolic and H & E staining of fresh-frozen tissue sections” value in [10] is “metabolic normalisation, and histological tumor disappearance”; in series [11] it was “metabolic normalisation, and histological tumor disappearance”. Further, the seizures result in series [12] (treated animals) is recorded as “No seizures were observed”. The “liver and kidney histomorphology” value in series [12] (treated animals, autopsy) is listed as “did not show any histomorphological abnormality”. For the same compound, in series [12] (treated glioma rats, clinical observation), the “adverse therapy-related events and toxic effects” value was “no adverse therapy-related events and no toxic effects were observed clinically”. The “tumor uptake / targeting in glioma patient” value with glioma [13] (SPECT 30 min and 26 h post injection) is on record as “not only taken up but also retained by glioma tissue; also recorded: Successful tumor targeting”. Further, the tolerability entry with glioma [13] (patient) was “well tolerated”. In addition, the retention in tumor result in the series on glioma [13] (patient, SPECT) is recorded as “at least 26 hours”.
